Patent publication US10160705B2, “Class of HDAC inhibitors expands the renal progenitor cells population and improves the rate of recovery from acute kidney injury” (University of Pittsburgh—Of the Commonwealth System of …, priority 2011, dated 2018)
Like-named read-outs stand apart in the source and are kept apart here.

Key:
renal progenitor cells = assay: In situ hybridization for lhx1a expression in 10-somite embryos (renal progenitor cell expansion); assay type: in vivo; on Lhx1a expansion caused by analog treatment, 3 μM: key: effective (+); partially effective (+/−); ineffective (−); Analogs that killed all embryos at a given concentration before reaching 10 somites are listed as XX; on Lhx1a expansion caused by analog treatment, 800 nM: key: effective (+); partially effective (+/−); ineffective (−); Analogs that killed all embryos at a given concentration before reaching 10 somites are listed as XX
In short: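 Zebrafish embryos treated with compound, then colorimetric whole-mount in situ hybridization (65° C) for lhx1a mRNA at 10 somites. Embryos with expanded kidney field counted manually as percent of total. EC50 taken as 50% point of percent-expansion trendline; compounds also classed effective, partial or ineffective versus PTBA at matched concentration.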

zebrafish embryos = assay: Phenotypic screen for edema and survival in zebrafish larvae at 72 hpf
In short: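 Embryos (5/well in primary screen; 12–30 per group otherwise) exposed from 2 hpf in E3 medium with 0.5% DMSO, 10 μM in screen or stated concentrations, 28.5 °C for 70 h. At 72 hpf, edema scored by phenotype classification (dominant phenotype in ≥4/5 embryos in screen); survival vs 0 μM by two-tailed Fisher's exact test (p<0.05).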

[1] = test system: RA-responsive genes, cyp26a1 and cmlc2; assay: In situ hybridization for RA-responsive genes cyp26a1 and cmlc2 in 18-somite embryos; assay type: in vivo, zebrafish; conditions: 3 μM
Description: In situ hybridization and immunocytochemistry: In situ hybridization was performed as previously described with some modifications.142 Hybridization temperature was 65° C. Embryos were blocked in 2% blocking reagent (Roche) with 5% sheep serum in MAB (100 mM maleic acid and 150 mM NaCl [pH 7.5]). Whole-mount immunocytochemistry with 1:25 mouse anti-α6F antibody (Developmental Studies Hybridoma Bank) and 1:100 Cy3 secondary antibody (Jackson ImmunoResearch) was performed as described previously.108 Embryos were embedded in JB-4 for sectioning per the manufacturer's instructions (Polysciences), sectioned at 5 μm, and mounted with Cytoseal 60 (Richard-Allan Scientific).
HDACis are believed to lower the threshold of RA necessary to activate transcription. If PTBA treatment facilitates activation of the RA pathway, then expression of genes responsive to RA signaling should change. […] In a previous study, cmlc2 expression was assessed for RAdependent effects in 18-somite embryos (Keegan, B. R., Feldman, J. L., Begemann, G., Ingham, P. W. & Yelon, D. Retinoic acid signaling restricts the cardiac progenitor pool. Science 307, 247-249, (2005)), therefore embryos were collected at the 18-somite stage for continuity. […]

[2] = number of larvae (of 36), 3 μM from 2 hpf, scored at 72 hpf

In the case of O=C(O)CCCSc1ccccc1 [UPHD-00020, 4-(phenylthio)butanoic acid (PTBA)], the “Lhx1a expansion caused by analog treatment, 800 nM” value (renal progenitor cells; 800 nM from 2 hpf, 10-somite embryos) is reported as “+/−”, the “Lhx1a expansion caused by analog treatment, 1.5 μM” value (renal progenitor cells; 1.5 μM from 2 hpf, 10-somite embryos) is reported as “+” and the “Lhx1a expansion caused by analog treatment, 3 μM” value (renal progenitor cells; 3 μM from 2 hpf, 10-somite embryos) is reported as “+”. It also gave a responders at 1.5 µM (renal progenitor cells; Danio rerio, 1.5 μM from 2 hpf, 10-somite embryos, read-out: lhx1a expansion, percent of treated embryos) of 83%, a responders at 3 µM (renal progenitor cells; Danio rerio, 3 μM PTBA added at 8 hpf after 0.5% DMSO at 5 hpf (HUA study), read-out: lhx1a expansion, percent of treated embryos) of 97% and a responders at 3 µM (renal progenitor cells; Danio rerio, 3 μM PTBA together with HUA (hydroxyurea and aphidicolin), read-out: lhx1a expansion, percent of treated embryos) of 13%. For the same compound, the responders at 3 µM (renal progenitor cells; Danio rerio, 3 μM from 2 hpf, 10-somite embryos, read-out: lhx1a expansion, percent of treated embryos) was 95%, the responders at 3 µM (renal progenitor cells; Danio rerio, embryos injected with 200 pg DN-RARα mRNA, 3 μM PTBA from 5 hpf, read-out: lhx1a expansion, percent of treated embryos) was 19% and the responders at 3 µM (renal progenitor cells; Danio rerio, mock-injected embryos, 3 μM PTBA from 5 hpf, read-out: lhx1a expansion, percent of treated embryos) was 90%. For the same compound, the responders at 0.2 µM (renal progenitor cells; Danio rerio, percent of embryos with expanded kidney field, 200 nM, read-out: Expansion of Cells (including repeats* and recounts**) 200 nM) was 10%, the responders at 0.4 µM (renal progenitor cells; Danio rerio, percent of embryos with expanded kidney field, 400 nM, read-out: Expansion of Cells (including repeats* and recounts**) 400 nM) was 10% and the responders at 3 µM (renal progenitor cells; Danio rerio, percent of embryos with expanded kidney field, 3 μM, read-out: Expansion of Cells (including repeats* and recounts**) 3 μM) was 100%. For the same compound, the EC50 (renal progenitor cells; Danio rerio, first pass EC50 from percent expansion (Excel trendline), average where several experiments) was 1400 nM, the “larvae with edemic phenotype / pericardial edema by 72 hpf” value (zebrafish embryos; 3 μM PTBA, 25 μM PBA, 200 nM TSA) was 92% and the “phenotype in initial chemical screen” value (zebrafish embryos; 10 μM, larvae at 72 hpf) was “pericardial edema”. The “survival to 72 hpf” value (zebrafish embryos; 10 μM, n=90) was “died before 72 hpf”, the Dead (zebrafish embryos; [2]) was 1 and the “Edemic 1 (E1)” value (zebrafish embryos; [2]) was 13. The “Edemic 2 (E2)” value (zebrafish embryos; [2]) was 17, the “Edemic 3 (E3)” value (zebrafish embryos; [2]) was 5 and the “Wild-type (WT)” value (zebrafish embryos; [2]) was 0. For the same compound, the “cmlc2 expression decreased, percent of treated embryos” value [1] was 100% and the “cyp26a1 expression increased, percent of treated embryos” value [1] was 100%.
